Data as given in patent US11597706B2, “Compounds and compositions for treating conditions associated with NLRP activity” (Novartis AG, priority 2016, dated 2023).

Biological target: T1, hNLRP3 (THP-1, IL-1β) (Homo sapiens, UniProt Q96P20)
T1 construct: THP-1 cells were purchased from the American Type Culture Collection; host or cells: THP-1 cells, PMA-differentiated, stimulated with gramicidin
Test: IL-1β production in PMA-differentiated THP-1 cells stimulated with gramicidin
Type: cell-based
Details: Table 1, gramicidin 5 μM, IL-1β readout
Description: IL-1β Production in PMA-Differentiated THP-1 Cells Stimulated With Gramicidin.
Cell culture-THP-1 cells were purchased from the American Type Culture Collection and sub-cultured according to instructions from the supplier. Prior to experiments, cells were cultured in RPMI 1640 containing 10% heat inactivated FBS, penicillin (100 units/ml) and streptomycin (100 μg/ml), and maintained in log phase prior to experimental setup. Prior to the experiment THP-1 were treated with PMA (Phorbol 12-myristate 13-acetate) (10 μg/ml) for 24 hours. The day of the experiment the media was removed and attaching cells were treated with trypsin for 2 minutes, cells were then collected, washed with PBS (phosphate buffer saline), spin down, resuspended in 2% heat inactivated FBS with RPMI at a concentration of 1×10^6 cells/ml, and 100 μl was plated in a 96 well plate. Cells were incubated with compounds for 1 hours and then stimulated with Gramicidin (5 μM) (Enzo) for 2 hours. Cell free supernatant was collected and the production of IL-1β was evaluated by ELISA. Compounds were dissolved in dimethyl sulfoxide (DMSO) and added to the culture medium to achieve desired concentration (e.g. 100, 30, 10, 3, 1, 0.3 or 0.1 μM). A vehicle only control was run concurrently with each experiment. Final DMSO concentration was 1%.
THP-1 cells were purchased from the American Type Culture Collection and sub-cultured according to instructions from the supplier. Prior to experiments, cells were cultured in complete RPMI 1640 (containing 10% heat inactivated FBS, penicillin (100 units/ml) and streptomycin (100 μg/ml)), and maintained in log phase prior to experimental setup. Prior to the experiment THP-1 were treated with PMA (Phorbol 12-myristate 13-acetate) (20 ng/ml) for 16-18 hours. On the day of the experiment the media was removed and adherent cells were detached with trypsin for 5 minutes. Cells were then harvested, washed with complete RPMI 1640, spun down, resuspended in RPMI 1640 (containing 2% heat inactivated FBS, penicillin (100 units/ml) and streptomycin (100 μg/ml). The cells were plated in a 384-well plate at a density of 50,000 cells/well (final assay volume 50 μl). Compounds were dissolved in dimethyl sulfoxide (DMSO) and added to the culture medium to achieve desired concentration (e.g. 100, 33, 11, 3.7, 1.2, 0.41, 0.14, 0.046, 0.015, 0.0051, 0.0017 μM). Cells were incubated with compounds for 1 hour and then stimulated with gramicidin (5 μM) (Enzo) for 2 hours. Cell free supernatant was collected and the production of IL-1β was evaluated by HTRF (cisbio). A vehicle only control was run concurrently with each experiment. Final DMSO concentration was 0.38%.

T1 sequence (Q96P20 whole entry): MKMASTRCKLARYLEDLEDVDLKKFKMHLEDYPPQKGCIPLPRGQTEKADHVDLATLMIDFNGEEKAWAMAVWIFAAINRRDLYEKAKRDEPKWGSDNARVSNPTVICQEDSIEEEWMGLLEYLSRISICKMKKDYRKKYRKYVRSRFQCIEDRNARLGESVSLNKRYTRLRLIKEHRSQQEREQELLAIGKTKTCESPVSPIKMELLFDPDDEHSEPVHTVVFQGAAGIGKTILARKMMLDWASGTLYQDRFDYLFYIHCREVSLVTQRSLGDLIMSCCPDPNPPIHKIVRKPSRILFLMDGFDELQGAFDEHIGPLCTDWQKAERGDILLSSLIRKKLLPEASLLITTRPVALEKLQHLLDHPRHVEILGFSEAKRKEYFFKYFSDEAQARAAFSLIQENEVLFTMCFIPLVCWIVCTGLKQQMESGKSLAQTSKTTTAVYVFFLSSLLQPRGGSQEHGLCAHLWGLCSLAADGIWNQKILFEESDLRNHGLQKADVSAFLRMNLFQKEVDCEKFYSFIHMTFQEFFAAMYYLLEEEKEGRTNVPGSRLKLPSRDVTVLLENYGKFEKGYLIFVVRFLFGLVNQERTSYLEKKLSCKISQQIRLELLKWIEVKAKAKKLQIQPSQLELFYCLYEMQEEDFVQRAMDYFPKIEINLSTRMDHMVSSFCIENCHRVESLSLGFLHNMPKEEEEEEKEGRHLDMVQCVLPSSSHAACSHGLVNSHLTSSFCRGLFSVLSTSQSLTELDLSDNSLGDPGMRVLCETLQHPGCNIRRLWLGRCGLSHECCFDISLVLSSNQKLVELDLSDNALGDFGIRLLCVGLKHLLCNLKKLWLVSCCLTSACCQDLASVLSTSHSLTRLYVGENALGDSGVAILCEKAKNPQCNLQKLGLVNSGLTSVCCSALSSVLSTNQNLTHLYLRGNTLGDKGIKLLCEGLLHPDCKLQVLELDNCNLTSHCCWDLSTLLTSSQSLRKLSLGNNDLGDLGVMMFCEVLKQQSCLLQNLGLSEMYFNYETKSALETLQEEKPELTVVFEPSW

Row | SMILES | IC50 [µM]
1 | CC(C)(O)c1cccc(S(=O)(=O)NC(=O)Nc2c3c(c(F)c4c2CCC4)CCC3)c1 [Compound 111, N-(8-fluoro-1,2,3,5,6,7-hexahydros-indacen-4-ylcarbamoyl)-3-(2-hydroxypropan-2-yl)benzenesulfonamide] | < 1
2 | CC(C)(O)c1ccc(F)c(S(=O)(=O)NC(=O)Nc2c3c(cc4c2CCC4)CCC3)c1 [Compound 131, 1-[[2-fluoro-5-(2-hydroxypropan-2-yl)benzene]sulfonyl]-3-(1,2,3,5,6,7-hexahydro-s-indacen-4-yl)urea] | < 1
3 | CC(C)(O)c1cc(Cl)cc(S(=O)(=O)NC(=O)Nc2c3c(c(F)c4c2CCC4)CCC3)c1 [Compound 113, 3-chloro-N-(8-fluoro-1,2,3,5,6,7-hexahydros-indacen-4-ylcarbamoyl)-5-(2-hydroxypropan-2-yl)benzenesulfonamide] | < 1
4 | CC(C)(O)c1cc(C#N)cc(S(=O)(=O)NC(=O)Nc2c3c(c(F)c4c2CCC4)CCC3)c1 [Compound 112, 3-cyano-N-(8-fluoro-1,2,3,5,6,7-hexahydros-indacen-4-ylcarbamoyl)-5-(2-hydroxypropan-2-yl)benzenesulfonamide] | < 1
5 | CC(C)(O)c1cc(C#N)cc(S(=O)(=O)NC(=O)Nc2c3c(c(Cl)c4c2CCC4)CCC3)c1 [Compound 110, N-(8-chloro-1,2,3,5,6,7-hexahydros-indacen-4-ylcarbamoyl)-3-cyano-5-(2-hydroxypropan-2-yl)benzenesulfonamide] | < 1
6 | CC(C)(O)c1cc(F)cc(S(=O)(=O)NC(=O)Nc2c3c(c(F)c4c2CCC4)CCC3)c1 [Compound 114, 3-fluoro-N-(8-fluoro-1,2,3,5,6,7-hexahydros-indacen-4-ylcarbamoyl)-5-(2-hydroxypropan-2-yl)benzenesulfonamide] | < 1

Results, then the molecule that gave them:

Row | IC50 [µM] | SMILES
7 | < 1 | CC(C)c1cccc(C(C)C)c1NC(=O)NS(=O)(=O)c1cc(Cl)cc(C(C)(C)O)c1 [Compound 120, 3-chloro-N-(2,6-diisopropylphenylcarbamoyl)-5-(2-hydroxypropan-2-yl)benzenesulfonamide]
8 | < 1 | CC(C)c1cc(F)cc(C(C)C)c1NC(=O)NS(=O)(=O)c1cc(Cl)cc(C(C)(C)O)c1 [Compound 123, 3-chloro-N-(4-fluoro-2,6-diisopropylphenylcarbamoyl)-5-(2-hydroxypropan-2-yl)benzenesulfonamide]
9 | < 1 | CC(C)c1cc(C#N)cc(C(C)C)c1NC(=O)NS(=O)(=O)c1cc(C#N)cc(C(C)(C)O)c1 [Compound 116, 3-cyano-N-(4-cyano-2,6-diisopropylphenylcarbamoyl)-5-(2-hydroxypropan-2-yl)benzenesulfonamide]
10 | < 1 | CC(C)c1cc(C#N)cc(C(C)C)c1NC(=O)NS(=O)(=O)c1cc(F)cc(C(C)(C)O)c1 [Compound 126]

Same assay, conditions: Table 2, gramicidin 5 μM, IL-1β readout

Row | SMILES | IC50 [µM]
11 | CC(C)(O)c1cc(C#N)cc(S(=O)(=O)NC(=O)Nc2c3c(cc4c2CCC4)CCC3)c1 [Compound 142] | < 1
12 | CC(C)(O)c1ccc(S(=O)(=O)NC(=O)Nc2c3c(cc4c2CCC4)CCC3)cc1CO [Compound 163, N-(1,2,3,5,6,7-hexahydro-sindacen-4-ylcarbamoyl)-3-(hydroxymethyl)-4-(2-hydroxypropan-2-yl)benzenesulfonamide] | < 1
13 | CC(C)(O)c1ccc(S(=O)(=O)NC(=O)Nc2c3c(cc4c2CCC4)CCC3)cn1 [Compound 166, N-(1,2,3,5,6,7-hexahydros-indacen-4-ylcarbamoyl)-6-(2-hydroxypropan-2-yl)pyridine-3-sulfonamide] | < 1
14 | CC(C)(O)c1ccc(S(=O)(=O)NC(=O)Nc2c3c(c(Cl)c4c2CCC4)CCC3)cc1 [Compound 161, N-(8-chloro-1,2,3,5,6,7-hexahydro-sindacen-4-ylcarbamoyl)-4-(2-hydroxypropan-2-yl)benzenesulfonamide] | < 1
15 | CC(C)(O)c1ccc(S(=O)(=O)NC(=O)Nc2c3c(cc4c2CCC4)CCC3)cc1 [Compound 167, N-(1,2,3,5,6,7-hexahydros-indacen-4-ylcarbamoyl)-4-(2-hydroxypropan-2-yl)benzenesulfonamide] | < 1
16 | CC(C)(O)c1cc(-c2ccncc2)cc(S(=O)(=O)NC(=O)Nc2c3c(cc4c2CCC4)CCC3)c1 [Compound 149, N-(1,2,3,5,6,7-hexahydro-sindacen-4-ylcarbamoyl)-3-(2-hydroxypropan-2-yl)-5-(pyridin-4-yl)benzenesulfonamide] | 1 to 5
17 | CC(C)(O)c1cc(-c2ccccc2)cc(S(=O)(=O)NC(=O)Nc2c3c(cc4c2CCC4)CCC3)c1 [Compound 151, N-(1,2,3,5,6,7-hexahydro-sindacen-4-ylcarbamoyl)-5-(2-hydroxypropan-2-yl)biphenyl-3-sulfonamide] | 1 to 5
18 | CC(C)(O)c1ccc(S(=O)(=O)NC(=O)Nc2c3c(c(C#N)c4c2CCC4)CCC3)cc1 [Compound 164, N-(8-cyano-1,2,3,5,6,7-hexahydro-sindacen-4-ylcarbamoyl)-4-(2-hydroxypropan-2-yl)benzenesulfonamide] | < 1
19 | COC(=O)c1ccc(F)c(S(=O)(=O)NC(=O)Nc2c(C(C)C)cc(Cl)cc2C(C)C)c1 [Compound 171, methyl 3-(N-(4-chloro-2,6-diisopropylphenylcarbamoyl)sulfamoyl)-4-fluorobenzoate] | 1 to 5

Other lines, results leading:

Row | IC50 [µM] | SMILES
20 | 1 to 5 | CC(C)c1ccc(F)c(C(C)C)c1NC(=O)NS(=O)(=O)c1cc(C(C)(C)O)cc(C(C)(C)O)c1 [Compound 155, N-(3-fluoro-2,6-diisopropylphenylcarbamoyl)-3,5-bis(2-hydroxypropan-2-yl)benzenesulfonamide]
21 | < 1 | CC(C)c1cc(Cl)cc(C(C)C)c1NC(=O)NS(=O)(=O)c1ccc(C(C)(C)O)cc1 [Compound 162, N-(4-chloro-2,6-diisopropylphenylcarbamoyl)-4-(2-hydroxypropan-2-yl)benzenesulfonamide]
22 | 1 to 5 | CC(C)c1ccc(F)c(C(C)C)c1NC(=O)NS(=O)(=O)c1cc(-c2ccccc2)cc(C(C)(C)O)c1 [Compound 153, N-(3-fluoro-2,6-diisopropylphenylcarbamoyl)-5-(2-hydroxypropan-2-yl)biphenyl-3-sulfonamide]
23 | < 1 | CC(C)c1cc(Cl)cc(C(C)C)c1NC(=O)NS(=O)(=O)c1cc(C#N)cc(C(C)(C)O)c1 [Compound 145, N-(4-chloro-2,6-diisopropylphenylcarbamoyl)-3-cyano-5-(2-hydroxypropan-2-yl)benzenesulfonamide]
24 | < 1 | CC(C)c1ccc(F)c(C(C)C)c1NC(=O)NS(=O)(=O)c1cc(F)cc(C(C)(C)O)c1 [Compound 144, 3-fluoro-N-(3-fluoro-2,6-diisopropylphenylcarbamoyl)-5-(2-hydroxypropan-2-yl)benzenesulfonamide]
25 | 1 to 5 | CC(C)c1cccc(C(C)C)c1NC(=O)NS(=O)(=O)c1ccc(C(C)(C)O)cc1 [Compound 169, N-(2,6-diisopropylphenylcarbamoyl)-4-(2-hydroxypropan-2-yl)benzenesulfonamide]
26 | 5 to 15 | COC(=O)c1cc(C(C)C)c(NC(=O)NS(=O)(=O)c2cccc(C(C)(C)O)c2)c(C(C)C)c1 [Compound 158, methyl 4-(3-(3-(2-hydroxypropan-2-yl)phenylsulfonyl)ureido)-3,5-diisopropylbenzoate]
27 | < 1 | CC(C)c1ccc(F)c(C(C)C)c1NC(=O)NS(=O)(=O)c1cc(Cl)cc(C(C)(C)O)c1 [Compound 137, 3-chloro-N-(3-fluoro-2,6-diisopropylphenylcarbamoyl)-5-(2-hydroxypropan-2-yl)benzenesulfonamide]
28 | < 1 | CC(C)c1ccc(F)c(C(C)C)c1NC(=O)NS(=O)(=O)c1cccc(C(C)(C)O)c1 [Compound 141, N-(3-fluoro-2,6-diisopropylphenylcarbamoyl)-3-(2-hydroxypropan-2-yl)benzenesulfonamide]
29 | < 1 | CC(C)c1cc(C#N)cc(C(C)C)c1NC(=O)NS(=O)(=O)c1cccc(C(C)(C)O)c1 [Compound 147, N-(4-cyano-2,6-diisopropylphenylcarbamoyl)-3-(2-hydroxypropan-2-yl)benzenesulfonamide]
30 | 1 to 5 | CC(C)c1ccc(F)c(C(C)C)c1NC(=O)NS(=O)(=O)c1cc(N2CCOCC2)cc(C(C)(C)O)c1 [Compound 157, N-(3-fluoro-2,6-diisopropylphenylcarbamoyl)-3-(2-hydroxypropan-2-yl)-5-morpholinobenzenesulfonamide]
